In patent US20020065219A1, “Water soluble thiazolyl peptide derivatives” (priority 2000, published 2002):
Values after ≈ are worked out from the molar mass of the structure shown. Read-outs that look alike come from different tables or passages of the source.

How the values were obtained:
Experiment in all cases: MIC, broth micro dilution assay (NCCLS)
Assay type in all cases: cell-based
[1] = tested on: Staphylococcus aureus A15090
[2] = tested on: Enterococcus faecalis A20688
[3] = tested on: Streptococcus pneumoniae A28272
[4] = Mueller-Hinton medium, 35° C., 18 hours
[5] = 50% Mueller-Hinton medium and 50% Todd Hewitt medium, 35° C., 18 hours

Structure (SMILES) | MIC (μg/mL) against Staphylococcus aureus A15090 [1, 4] [µg/mL] | MIC (μg/mL) against Enterococcus faecalis A20688 [2, 4] [µg/mL] | MIC (μg/mL) against Streptococcus pneumoniae A28272 [3, 5] [µg/mL] | MIC (μg/mL) against Staphylococcus aureus A15090 [1] [µg/mL] | MIC (μg/mL) against Enterococcus faecalis A20688 [2] [µg/mL] | MIC (μg/mL) against Streptococcus pneumoniae A28272 [3] [µg/mL]
COC(C)=C1NC(=O)C(C(C)O)NC(=O)c2csc(n2)-c2cc(O)c(-c3nc(C(=O)NC(CN4CCCC4C(O)C(C)C)C(N)=O)cs3)nc2-c2csc(n2)C2COC(=O)c3c4c5c(cccc5n3O)COC(=O)C(OC3CC(C)(O)C(N(C)C)C(C)O3)C(OC4)C(NC(=O)c3csc1n3)c1nc(cs1)C(=O)N2 (stereo not drawn) [Example 81] | 0.125 (≈ 0.0791 µM) | 0.125 (≈ 0.0791 µM) | 0.007 (≈ 0.00443 µM) | – | – | –
COC(C)=C1NC(=O)C(C(C)O)NC(=O)c2csc(n2)-c2cc(O)c(-c3nc(C(=O)NC(CN(C)CCC(=O)Nc4ccncc4)C(N)=O)cs3)nc2-c2csc(n2)C2COC(=O)c3c4c5c(cccc5n3O)COC(=O)C(OC3CC(C)(O)C(N(C)C)C(C)O3)C(OC4)C(NC(=O)c3csc1n3)c1nc(cs1)C(=O)N2 (stereo not drawn) [Example 82] | 0.5 (≈ 0.309 µM) | 0.5 (≈ 0.309 µM) | 0.03 (≈ 0.0186 µM) | – | – | –
COC(C)=C1NC(=O)C(C(C)O)NC(=O)c2csc(n2)-c2cc(O)c(-c3nc(C(=O)NC(CN(C)CCCNc4ccncc4)C(N)=O)cs3)nc2-c2csc(n2)C2COC(=O)c3c4c5c(cccc5n3O)COC(=O)C(OC3CC(C)(O)C(N(C)C)C(C)O3)C(OC4)C(NC(=O)c3csc1n3)c1nc(cs1)C(=O)N2 (stereo not drawn) [Example 83] | 1.0 (≈ 0.624 µM) | 0.5 (≈ 0.312 µM) | 0.25 (≈ 0.156 µM) | – | – | –
COC(C)=C1NC(=O)C(C(C)O)NC(=O)c2csc(n2)-c2cc(O)c(-c3nc(C(=O)NC(CN4CCC4CO)C(N)=O)cs3)nc2-c2csc(n2)C2COC(=O)c3c4c5c(cccc5n3O)COC(=O)C(OC3CC(C)(O)C(N(C)C)C(C)O3)C(OC4)C(NC(=O)c3csc1n3)c1nc(cs1)C(=O)N2 (stereo not drawn) [Example 84] | – | – | – | 0.5 (≈ 0.328 µM) | 0.25 (≈ 0.164 µM) | 0.125 (≈ 0.082 µM)
COC(C)=C1NC(=O)C(C(C)O)NC(=O)c2csc(n2)-c2cc(O)c(-c3nc(C(=O)NC(CN4CCN(c5cccnc5)CC4)C(N)=O)cs3)nc2-c2csc(n2)C2COC(=O)c3c4c5c(cccc5n3O)COC(=O)C(OC3CC(C)(O)C(N(C)C)C(C)O3)C(OC4)C(NC(=O)c3csc1n3)c1nc(cs1)C(=O)N2 (stereo not drawn) [Example 85] | – | – | – | 0.06 (≈ 0.0375 µM) | 0.25 (≈ 0.156 µM) | 0.007 (≈ 0.00437 µM)
COC(C)=C1NC(=O)C(C(C)O)NC(=O)c2csc(n2)-c2cc(O)c(-c3nc(C(=O)NC(CN4CCCC4C(C)O)C(N)=O)cs3)nc2-c2csc(n2)C2COC(=O)c3c4c5c(cccc5n3O)COC(=O)C(OC3CC(C)(O)C(N(C)C)C(C)O3)C(OC4)C(NC(=O)c3csc1n3)c1nc(cs1)C(=O)N2 (stereo not drawn) [Example 86] | 0.007 (≈ 0.00451 µM) | 0.06 (≈ 0.0386 µM) | 0.015 (≈ 0.00966 µM) | – | – | –
CCC(O)C1CCCN1CC(NC(=O)c1csc(-c2nc3c(cc2O)-c2nc(cs2)C(=O)NC(C(C)O)C(=O)NC(=C(C)OC)c2nc(cs2)C(=O)NC2c4nc(cs4)C(=O)NC(COC(=O)c4c5c6c(cccc6n4O)COC(=O)C(OC4CC(C)(O)C(N(C)C)C(C)O4)C2OC5)c2nc-3cs2)n1)C(N)=O (stereo not drawn) [Example 87] | 0.015 (≈ 0.00957 µM) | 0.06 (≈ 0.0383 µM) | 0.007 (≈ 0.00447 µM) | – | – | –
COC(C)=C1NC(=O)C(C(C)O)NC(=O)c2csc(n2)-c2cc(O)c(-c3nc(C(=O)NC(CN4CCCC4C(C)O)C(N)=O)cs3)nc2-c2csc(n2)C2COC(=O)c3c4c5c(cccc5n3O)COC(=O)C(OC3CC(C)(O)C(N(C)C)C(C)O3)C(OC4)C(NC(=O)c3csc1n3)c1nc(cs1)C(=O)N2 (stereo not drawn) [Example 88] | 0.007 (≈ 0.00451 µM) | 0.06 (≈ 0.0386 µM) | 0.03 (≈ 0.0193 µM) | – | – | –
COC(C)=C1NC(=O)C(C(C)O)NC(=O)c2csc(n2)-c2cc(O)c(-c3nc(C(=O)NC(CN4CCCC4C(C)(C)O)C(N)=O)cs3)nc2-c2csc(n2)C2COC(=O)c3c4c5c(cccc5n3O)COC(=O)C(OC3CC(C)(O)C(N(C)C)C(C)O3)C(OC4)C(NC(=O)c3csc1n3)c1nc(cs1)C(=O)N2 (stereo not drawn) [Example 89] | 0.003 (≈ 0.00191 µM) | 0.03 (≈ 0.0191 µM) | 0.007 (≈ 0.00447 µM) | – | – | –
COC(C)=C1NC(=O)C(C(C)O)NC(=O)c2csc(n2)-c2cc(O)c(-c3nc(C(=O)NC(CN4CCCC4C(O)C4CCCCC4)C(N)=O)cs3)nc2-c2csc(n2)C2COC(=O)c3c4c5c(cccc5n3O)COC(=O)C(OC3CC(C)(O)C(N(C)C)C(C)O3)C(OC4)C(NC(=O)c3csc1n3)c1nc(cs1)C(=O)N2 (stereo not drawn) [Example 90] | 0.03 (≈ 0.0185 µM) | 0.06 (≈ 0.037 µM) | 0.007 (≈ 0.00432 µM) | – | – | –
